In ChEMBL document CHEMBL3600293, “Design, synthesis and evaluation of MCH receptor 1 antagonists--Part I: Optimization of HTS hits towards an in vivo efficacious tool compound BI 414” (Bioorg Med Chem Lett, 2015):

How the values were obtained:
in vitro [1] = conditions: human, liver microsomes
Description: Half life in human liver microsomes

in vitro [2] = conditions: rat, liver microsomes
Description: Half life in rat liver microsomes

NC(=O)C1CCN(CCOc2ccc(C#Cc3ccc(-c4ccc(Cl)cc4)cn3)cc2)CC1
half-life (in vitro [1]): > 90 min
half-life (in vitro [2]): 21 min
